This passage reports GI50 and TGI results from PubChem BioAssay (NCI).

Assay in all cases: growth of human tumour cells (NCI), 48 h
Test [1] concerns KM12 colon.
For test [2], the system named is SK-MEL-28 melanoma.
In test [3] the test system is HOP-62 NSCLC.
Test [4] deals with K-562 leukemia.
Test [5] relates to SN12C renal.
Test [6] concerns MDA-MB-435.
Test [7] concerns NCI-H522 lung.
In test [8] the test system is 786-0 renal.
Test [9] deals with HOP-92 NSCLC.
Test [10] has as its system OVCAR-4 ovarian.

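Step 1: Grow cells in 96-well plates. Step 2: Expose to compound for 48 hours at 5 concentrations. Step 3: Interpolate endpoints linearly; if unreached, use highest concentration. Abbreviation: GI50, concentration required for 50% inhibition of growth. TGI: total growth inhibition.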

For the molecule `COc1cc(NS(=O)(=O)c2ccc(-c3cnc(C4CC4)o3)cc2)ccc1F`, the GI50 in test [1] was 0.277 µM; in test [2], 1.77 µM; in test [3] it was 0.646 µM; in test [4] it was 0.082 µM; in test [5] it was 0.546 µM; in [6], 0.0498 µM. The GI50 in test [7] was 0.316 µM; in test [8], 0.694 µM; in test [9], 0.579 µM; in [10], 2.05 µM. Also, the TGI in test [1] is 18.1 µM; in test [2], 23.5 µM; in test [3] it was 18.8 µM; in test [4], more than 100 µM; in test [5], 18.1 µM; in test [6], 0.634 µM. In addition, the TGI amounted to 11.8 µM in test [7], 21.4 µM in test [8], 13.1 µM in test [9] and 36.2 µM in [10].

With `Cc1ccc2c3c(c(=O)[nH]c2c1)C1(C(C#N)=C(N)O3)c2cc(Br)ccc2-c2ccc(Br)cc21`, the GI50 in test [1] was 1.67 µM; in [2] it was 3.48 µM; in test [3], 1.85 µM; in test [4], 2.96 µM; in [5], 1.92 µM; in test [6], 2.05 µM. In addition, the GI50 in test [7] is 1.61 µM; in [8] it was 2.46 µM; in test [9], 1.38 µM; in [10] it was 1.72 µM. Also, the TGI in test [1] is 4.76 µM; in [2] it was 13.4 µM; in [3] it was 4.19 µM; in test [4], 12.6 µM; in test [5], 4.03 µM; in test [6], 4.7 µM. The TGI in [7] was found to be 4.32 µM; in test [8], 6.01 µM; in test [9], 3.15 µM; in test [10] it was 3.3 µM.

`COC(=O)c1c(C)[nH]c(/C=C2\N=C(c3ccc[nH]3)C=C2OC)c1C`: the GI50 in test [1] is 0.0938 µM; in [2], 0.685 µM; in [3], 0.769 µM; in test [4], 0.764 µM; in test [5], 0.389 µM; in [6], 0.108 µM. The GI50 in test [7] is 0.367 µM; in test [8] it was 0.262 µM; in test [9], 0.169 µM; in test [10], 0.571 µM. The TGI in [1] is 5.67 µM; in [2], 2.36 µM; in test [4], more than 27.5 µM; in test [5] it was more than 75.4 µM; in [6], 1.46 µM; in [7], 2.44 µM. Besides, the TGI in test [8] was found to be 1.4 µM; in test [9] it was 0.711 µM; in test [10], 2.44 µM.

Turning to `COc1cc2c3c(n(C)c(=O)c2cc1OC)-c1cc2c(cc1/C3=C\CNCCCN)OCO2`, the GI50 in test [1] was 0.359 µM; in test [2], 2.14 µM; in test [3], 0.625 µM; in test [4], 0.168 µM; in test [5], 0.115 µM; in test [6] it was 1.02 µM. Further, the GI50 in test [7] is 0.348 µM; in [8], 0.367 µM; in test [9] it was 0.174 µM; in test [10], 3.42 µM. Further, the TGI was determined as 3.93 µM in test [1]; 39.6 µM in test [2]; 10.9 µM in test [3]; 1.07 µM in test [5]; 5.72 µM in [6]; 6.07 µM in [8]. Also, the TGI was determined as 1.27 µM in [9] and 36.6 µM in test [10].

In the case of `CCN(CC)CCCC(C)Nc1cnc(C(=O)Nc2cccc3ccc(OC)nc23)cn1` (configuration not stated), the GI50 was 3.17 µM in test [1]; 1.74 µM in [2]; 1.83 µM in [3]; 1.8 µM in test [4]; 1.77 µM in test [5]; 1.77 µM in test [6]. Further, the GI50 in test [7] is 1.89 µM; in [8], 1.64 µM; in test [9], 6.93 µM; in [10], 1.98 µM. For the same molecule, the TGI was 11.7 µM in test [1]; 3.13 µM in test [2]; 3.71 µM in test [3]; 6.2 µM in [4]; 3.72 µM in test [5]; 3.24 µM in test [6]. Moreover, the TGI in test [7] is 3.79 µM; in test [8], 3.21 µM; in test [9] it was 21.9 µM; in [10], 4.62 µM.

Take `COc1ccc(OC)c(C(=O)c2oc3ccc(Br)cc3c2N)c1`: the GI50 is 0.348 µM in [1]; 0.61 µM in [2]; 0.49 µM in test [3]; 0.082 µM in [4]; 0.648 µM in [5]; 0.0466 µM in test [6]. Further, the GI50 in test [7] is 0.321 µM; in test [8], 0.581 µM; in [9], 1.71 µM; in [10], 3.61 µM. Moreover, the TGI in [1] was 18.4 µM; in test [2], 26.2 µM; in test [3] it was more than 50.6 µM; in [4], 35.2 µM; in test [5], 29.3 µM; in [6] it was 0.253 µM. The TGI was 4.14 µM in test [7], 47.4 µM in [8], 38.1 µM in test [9] and more than 100 µM in test [10].

As for `Cc1ccc2[nH]c(C(=O)NN3C(=O)C(C)SC34CCCC(C)C4)c(-c3ccccc3)c2c1` (configuration not stated), the GI50 was 65.6 µM in test [1]; more than 100 µM in [2]; more than 100 µM in test [3]; 35.1 µM in test [4]; 23.5 µM in [5]; more than 100 µM in test [6]. The GI50 in test [7] is 78 µM; in test [8], 58.3 µM; in test [9], more than 100 µM; in [10] it was 50 µM. For the same molecule, the TGI in [1], in [2], in test [3], in test [4], in test [5] and in test [6] was more than 100 µM throughout. Further, the TGI in test [7], in test [8], in test [9] and in [10] was more than 100 µM each time.
